Reference: patent publication US11103486B2, “Treatment of autoimmune disorders and infections using antagonists of SGK1 activity” (THE JOHNS HOPKINS UNIVERSITY, priority 2011, dated 2021)
Where a SMILES comes first, the peptide text is derived from it. The star is where a group is joined. Cbz = O=C(OCc1ccccc1)*

Tested on: JunB
Test: JunB protein levels by immunoblot of nuclear extracts of CD4+ T cells activated under Th2 skewing conditions
Format: cell-based, mice
Conditions: T-SGK1−/− CD4+ T cells activated under Th2 skewing conditions; MG132 added during the final 2 hours of stimulation
Experimental: (11A) Nuclear and cytoplasmic extracts from Wt and T-SGK1−/− CD4+ T cells. Cells were purified by magnetic separation and stimulated for 72 hours in vitro with anti-CD3 and anti-CD28 and either (Th1) IL-12, IFN-γ, and anti-IL-4, or (Th2) IL-4, anti-IFN-γ, and anti-IL-12p40 skewing conditions. Cells were lysed and separated into nuclear and cytoplasmic fractions. Nuclear extracts were blotted for the expression of JunB, and Lamin B is included as a loading control. Cytosolic fractions were blotted to measure the E3 ligase activity of NEDD4L (S342), and actin is included as a loading control. (11B) Nuclear extract of Wt and T-SGK1−/− treated with MG132. As in A, but with the addition of the proteasome inhibitor MG-132 during the final 2 hours of stimulation. Nuclear fractions were blotted for JunB. (11C) Immunoprecipitates (IPs) of JunB from Wt and T-SGK1−/− CD4+ T cells skewed with IL4 and treated with MG132. As in B, but nuclear fractions were subject to IP with JunB antibody. […] Fold induction of long and short isoforms of TCF1 over no stimulation control, as analyzed by quantitative polymerase chain reaction. […] Cells were restimulated for 4 hours with phorbol 12-myristate 13-acetate (PMA) and ionomycin in the presence of a protein transport inhibitor, and analyzed for production of IFN-γ by intracellular staining. […]

CC(C)C[C@@H](C=O)NC(=O)[C@H](CC(C)C)NC(=O)[C@H](CC(C)C)NC(=O)OCc1ccccc1 [MG132] (Cbz-Leu-Leu-Leu-aldehyde)
JunB levels (immunoblot, nuclear fraction): JunB levels increased
